Earlier results on 1 compound are cited in paper PMC2818531 (Bioorganic & medicinal chemistry letters, 2009).

This data set concerns the target HIV gp41 six-helix bundle (6-HB) (Human immunodeficiency virus type 1 group M subtype B, UniProt P04578). Particulars: read-out: EC50, inhibition of gp41 6-helical bundle formation.

HIV gp41 six-helix bundle (6-HB), sequence (P04578 546-581): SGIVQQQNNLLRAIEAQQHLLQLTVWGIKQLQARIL

As for `Cc1ccc(C)n1-c1ccc(O)c(C(=O)O)c1` [Ligand A12], the EC50 is 37.4 µM.
